For one series, the system named is Alternaria solani. Kind of series: In vivo preventive test on Alternaria solani (tomato). Particulars: for Efficacy: 500 ppm of active ingredient, evaluated 7 days after inoculation; for disease control: 500 ppm, comparison with prior-art compound. Here is the method: Solvent: 49 parts by weight of N,N-dimethylformamide Emulsifier: 1 part by weight of Alkylarylpolyglycolether To produce a suitable preparation of active compound, 1 part by weight of active compound is mixed with the stated amounts of solvent and emulsifier, and the concentrate is diluted with water to the desired concentration. To test for preventive activity, young plants are sprayed with the preparation of active compound at the stated rate of application. One day after this treatment, the plants are inoculated with an aqueous spore suspension of Alternaria solani. […] Then the plants are placed in an incubation cabinet at approximately 20° C. and a relative atmospheric humidity of 96%.

In a further series the test system is Pyrenophora teres. Kind of series: In vivo preventive test on Pyrenophora teres (barley), Example F. Conditions: for Efficacy: 500 ppm of active ingredient, evaluated 7-9 days after inoculation; for disease control: 500 ppm, comparison with prior-art compound. The protocol: (§1) Solvent: 49 parts by weight of N,N-dimethylformamide Emulsifier: 1 part by weight of alkylaryl polyglycol ether To produce a suitable preparation of active compound, 1 part by weight of active compound is mixed with the stated amounts of solvent and emulsifier, and the concentrate is diluted with water to the desired concentration. To test for preventive activity, young plants are sprayed with the preparation of active compound at the stated rate of application. One day after this treatment, the plants are inoculated with an aqueous spore suspension of Pyrenophora teres. […] Then the plants are placed in a greenhouse at a temperature of approximately 20° C. and a relative atmospheric humidity of approximately 80%.

The next series relates to Puccinia recondita. Kind of series: In vivo preventive test on Puccinia recondita (wheat), Example H. Particulars: 500 ppm, evaluated 7-9 days after inoculation. Here is the method:
as §1, with “N,N-dimethylacetamide” for “N,N-dimethylformamide”, “Puccinia recondita.” for “Pyrenophora teres.”

Series [1] can be described thus: log P by HPLC on reversed-phase column (C18), EEC Directive 79/831 Annex V.A8. Particulars: 40° C., 0.1% aqueous formic acid and acetonitrile, linear gradient 10% to 90% acetonitrile. It counts as physicochemical. The protocol: In table 1, the log P values were determined in accordance with EEC Directive 79/831 Annex V.A8 by HPLC (High Performance Liquid Chromatography) on a reversed-phase column (C18), using the method described below:
Temperature: 40° C.; Mobile phases: 0.1% aqueous formic acid and acetonitrile; linear gradient from 10% acetonitrile to 90% acetonitrile.
Calibration was carried out using unbranched alkan-2-ones (comprising 3 to 16 carbon atoms) with known log P values (determination of the log P values by the retention times using linear interpolation between two successive alkanones). lambda-max-values were determined using UV-spectra from 200 nm to 400 nm and the peak values of the chromatographic signals.

A further series has as its system Venturia inaequalis. Kind of series: In vivo preventive test on Venturia inaequalis (apple scab). Conditions: 100 ppm of active ingredient, evaluated 10 days after inoculation. Here is the method:
Solvent: 24.5 parts by weight of acetone • 24.5 parts by weight of N,N-dimethylacetamide Emulsifier: 1 part by weight of alkylaryl polyglycol ether To produce a suitable preparation of active compound, 1 part by weight of active compound is mixed with the stated amounts of solvent and emulsifier, and the concentrate is diluted with water to the desired concentration. To test for protective activity, young plants are sprayed with the preparation of active compound at the stated rate of application. […] The plants are then placed in a greenhouse at approximately 21° C. and a relative atmospheric humidity of approximately 90%.

Another series has as its system Leptosphaeria nodorum. Kind of series: In vivo preventive test on Leptosphaeria nodorum (wheat). Conditions: 500 ppm of active ingredient, evaluated 8 days after inoculation. The protocol: Solvent: 49 parts by weight of N,N-dimethylacetamide Emulsifier: 1 part by weight of alkylaryl polyglycol ether To produce a suitable preparation of active compound, 1 part by weight of active compound or the compound combination is mixed with the stated amounts of solvent and emulsifier, and the concentrate is diluted with water to the desired concentration. To test for protective activity, young plants are sprayed with a preparation of active compound or active compound combination at the stated rate of application. After the spray coating has dried on, the plants are sprayed with a spore suspension of Leptosphaeria nodorum. […] The plants are placed in a greenhouse at a temperature of approximately 15° C. and a relative atmospheric humidity of approximately 80%.

In another series the test system is Septoria tritici. Kind of series: In vivo preventive test on Septoria tritici (wheat). Particulars: 500 ppm of active ingredient, evaluated 21 days after inoculation. Here is the method:
Solvent: 49 parts by weight of N,N-dimethylacetamide Emulsifier: 1 part by weight of alkylaryl polyglycol ether To produce a suitable preparation of active compound, 1 part by weight of active compound or active compound combination is mixed with the stated amounts of solvent and emulsifier, and the concentrate is diluted with water to the desired concentration. To test for preventive activity, young plants are sprayed with the preparation of active compound or active compound combination at the stated rate of application. After the spray coating has dried on, the plants are sprayed with a spore suspension of Septoria tritici. […] The plants are placed in a greenhouse at a temperature of approximately 15° C. and a relative atmospheric humidity of approximately 80%.

The test system of the next series is Phakopsora pachyrhizi. Kind of series: In vivo protective test on Phakopsora pachyrhizi (soybean rust). Particulars: 250 ppm of active ingredient, evaluated 11 days after inoculation. Here is the method: Solvent: 28.5 parts by weight of acetone
Emulsifier: 1.5 parts by weight of polyoxyethylene alkyl phenyl ether
(§2) To produce a suitable preparation of active compound, 1 part by weight of active compound is mixed with the stated amounts of solvent and emulsifier, and the concentrate is diluted with water to the desired concentration.
To test for protective activity, young plants are sprayed with the preparation of active compound at the stated rate of application. One day after spraying, the plants are inoculated with an aqueous spore suspension of the causal agent of soybean rust (Phakopsora pachyrhizi). The plants are then placed in a greenhouse at approximately 20° C. and a relative atmospheric humidity of approximately 80%.
The test is evaluated 11 days after the inoculation. 0% means an efficacy which corresponds to that of the control, while an efficacy of 100% means that no disease is observed.
Under these conditions, good (at least 80%) to total protection is observed at a dose of 250 ppm of active ingredient with the following compounds from table G: […]

The test system of series [2] is Aflatoxins production by Aspergillus parasiticus. It counts as cell-based.
The next series concerns Aspergillus parasiticus. It counts as cell-based. Conditions: 7 days at 20° C., OD620nm.
Another series relates to Botrytis cinerea. Kind of series: In vivo preventive test on Botrytis cinerea (beans). Particulars: 500 ppm of active ingredient, lesion size 2 days after inoculation. Here is the method:
Solvent: 24.5 parts by weight of acetone
• 24.5 parts by weight of N,N-dimethylacetamide Emulsifier: 1 part by weight of alkylaryl polyglycol ether
as §2
To test for protective activity, young plants are sprayed with the preparation of active compound. After the spray coating has dried on, 2 small pieces of agar covered with growth of Botrytis cinerea are placed on each leaf. The inoculated plants are placed in a darkened chamber at 20° C. and a relative atmospheric humidity of 100%.
2 days after the inoculation, the size of the lesions on the leaves is evaluated. 0% means an efficacy which corresponds to that of the control, while an efficacy of 100% means that no disease is observed. Under these conditions, excellent (at least 95%) to total protection is observed at a dose of 500 ppm of active ingredient with the following compounds from table C: […]

`Cn1nc(C(F)F)c(C(=O)N(C[Si](C)(C)c2ccccc2)C2CCCCC2)c1F` [Example 11]: the values for the Efficacy with Alternaria solani and in the series with Pyrenophora teres were 90% and 70%, respectively. The disease control turned out to be 90% with Alternaria solani, 70% in the series with Pyrenophora teres and 80% in the series with Puccinia recondita. The logP in series [1] is given as 4.86.
Turning to `Cn1nc(C(F)F)c(C(=O)N(C[Si](C)(C)c2ccccc2Cl)C2CC2)c1F` [Example 18], the Efficacy in the series on Alternaria solani is given as 100%; in the series with Venturia inaequalis, 99%; with Leptosphaeria nodorum, 100%; in the series on Septoria tritici it was 100%; in the series on Pyrenophora teres, 100%; in the series on Phakopsora pachyrhizi it was 80%. Also, the “% Inhibition of Aflatoxin at 50 μM” value in series [2] is on record as 100%. Moreover, the “% Inhibition of fungal growth at 50 μM” value with Aspergillus parasiticus came out at 100%. Moreover, the logP in series [1] is 4.13.
In the case of `Cc1nn(C)c(F)c1C(=O)N(C[Si](C)(C)c1ccccc1Cl)C1CC1` [Example 19], the Efficacy in the series with Alternaria solani came to 100%; in the series with Venturia inaequalis it was 99%; in the series on Botrytis cinerea, 100%; in the series on Leptosphaeria nodorum, 100%; in the series on Septoria tritici it was 100%; in the series on Pyrenophora teres, 100%. In [1], the logP is listed as 3.60.
Consider `Cc1nn(C)c(F)c1C(=O)N(C[Si](C)(C)c1cccc(Cl)c1)C1CC1` [Example 27], for which the Efficacy with Alternaria solani is 94%; with Venturia inaequalis, 100%; with Botrytis cinerea, 98%; with Leptosphaeria nodorum it was 100%; in the series on Septoria tritici, 100%; with Pyrenophora teres, 100%. The molecule also yielded a logP in series [1] of 3.67.
In the case of `Cn1nc(C(F)F)c(C(=O)N(C[Si](C)(C)c2cccc(Cl)c2)C2CC2)c1F` [Example 31], the Efficacy in the series on Alternaria solani is reported as 100%; in the series with Venturia inaequalis it was 100%; in the series with Botrytis cinerea, 95%; with Leptosphaeria nodorum, 100%; in the series on Septoria tritici it was 100%; in the series with Pyrenophora teres it was 100%. The molecule also returned an Efficacy in the series with Phakopsora pachyrhizi of 100%. Further, the “% Inhibition of Aflatoxin at 50 μM” value in series [2] turned out to be 100%. In addition, the “% Inhibition of fungal growth at 50 μM” value in the series with Aspergillus parasiticus is recorded as 100%. Besides, the logP in [1] is listed as 4.18.
Regarding `Cn1nc(C(F)F)c(C(=O)N(C[Si](C)(C)c2ccc(Cl)cc2Cl)C2CC2)c1F` [Example 38], the Efficacy in the series with Alternaria solani is 94%; in the series with Venturia inaequalis, 100%; with Botrytis cinerea, 95%; in the series with Leptosphaeria nodorum, 100%; in the series with Septoria tritici it was 100%; in the series on Pyrenophora teres it was 100%. In the series on Phakopsora pachyrhizi, this molecule yielded an Efficacy of 85%. For the same molecule, the “% Inhibition of Aflatoxin at 50 μM” value in series [2] is recorded as 100%. In the series with Aspergillus parasiticus, the “% Inhibition of fungal growth at 50 μM” value is listed as 100%. Besides, the logP in series [1] came out at 4.78.
For the molecule `Cn1cc(C(=O)N(C[Si](C)(C)c2ccc(Cl)cc2Cl)C2CC2)c(C(F)F)n1` [Example 41], the Efficacy was 100% with Alternaria solani; 100% with Venturia inaequalis; 98% in the series on Botrytis cinerea; 95% with Leptosphaeria nodorum; 100% in the series with Septoria tritici; 100% in the series on Pyrenophora teres. Also, in series [1], the logP is on record as 4.41.
Regarding `CCc1nn(C)c(F)c1C(=O)N(C[Si](C)(C)c1ccc(Cl)cc1Cl)C1CC1` [Example 42], the Efficacy was 100% with Alternaria solani; 99% with Venturia inaequalis; 100% in the series with Botrytis cinerea; 100% in the series on Leptosphaeria nodorum; 100% in the series with Septoria tritici; 100% with Pyrenophora teres. In series [1], this molecule showed a logP of 4.78.
As to `CCc1nn(C)c(F)c1C(=O)N(C[Si](C)(C)c1cc(Cl)cc(Cl)c1)C1CC1` [Example 49], the Efficacy in the series with Alternaria solani came to 94%; in the series on Venturia inaequalis, 96%; with Leptosphaeria nodorum, 94%; in the series on Septoria tritici, 100%; with Pyrenophora teres, 100%. The logP in series [1] was determined as 4.78.
Turning to `Cn1nc(C(F)F)c(C(=O)N(C[Si](C)(C)c2cc(Cl)cc(Cl)c2)C2CC2)c1F` [Example 52], the Efficacy with Alternaria solani, in the series on Venturia inaequalis, with Botrytis cinerea, with Leptosphaeria nodorum, with Septoria tritici and in the series on Pyrenophora teres was 100% throughout. Also, the Efficacy with Phakopsora pachyrhizi was determined as 99%. In addition, the “% Inhibition of Aflatoxin at 50 μM” value in series [2] was 100%. The “% Inhibition of fungal growth at 50 μM” value in the series with Aspergillus parasiticus stood at 100%. In addition, the log partition coefficient (logP) in [1] is 4.78.
In the case of `Cn1nc(C(F)F)c(C(=O)N(C[Si](C)(C)Cc2ccccc2)C2CC2)c1F` [Example 55], the Efficacy in the series on Alternaria solani is on record as 100%; in the series with Venturia inaequalis, 100%; in the series with Botrytis cinerea, 100%; with Leptosphaeria nodorum, 100%; with Septoria tritici it was 90%; in the series on Pyrenophora teres it was 100%. Also, the “% Inhibition of Aflatoxin at 50 μM” value in series [2] was determined as 100%. The “% Inhibition of fungal growth at 50 μM” value with Aspergillus parasiticus is recorded as 99%. Besides, in series [1], the logP was 4.03.
In the case of `C[Si](C)(CN(C(=O)c1ccco1)C1CCCCC1)c1ccccc1` [N-cyclohexyl-N-{[dimethyl(phenyl)silyl]methyl}-2-furamide, reference compound], the disease control turned out to be 0% in the series on Alternaria solani, 0% in the series with Pyrenophora teres and 10% with Puccinia recondita.

These data come from patent US9556205B2, “Fungicide N-[(trisubstitutedsilyl)methyl]-carboxamide derivatives” (BAYER INTELLECTUAL PROPERTY GMBH, priority 2010, dated 2017).
